Structures can show the parent of a compound that is named as a salt. Where two headings read alike, the source gives them in different places.
How the values were obtained:
[1] = background; cited from earlier work
prolactin [2] = settings: literature; cited from earlier work
Parkinsonism = settings: literature; cited from earlier work
dopamine receptor = settings: literature; cited from earlier work
[3] = system: 6-hydroxydopamine-lesioned rats (dopamine agonist activity); assay: rat turning test (turning behavior contralateral to lesion in 6-hydroxydopamine-lesioned rats); assay type: in vivo; settings: for Average Number of Turns/rat: first 15 minutes after end of latency period
Experimental: In this test, nigro-neostriatal-lesioned rats are employed, which are prepared by the procedure of Ungerstedt and Arbuthnott, Brain Res, 24, 485 (1970). A compound having dopamine agonist activity causes the rats to turn in circles contralateral to the side of the lesion. After a latency period, which varies from compound to compound, the number of turns is counted over a 15-minute period.
The compounds were dissolved in water and the aqueous solution injected into the rat by the intraperitoneal route.

prolactin [4] = assay: inhibition of serum prolactin in reserpine-pretreated male rats; assay type: in vivo, rat (Sprague-Dawley); settings: for inhibition at 0.05 mg/kg: Rattus norvegicus, ip, read-out: Percent Inhibition of Serum Prolactin
Experimental: Adult male rats of the Sprague-Dawley strain weighing about 200 g. were housed in an air-conditioned room with controlled lighting (lights on 6 a.m.-8 p.m.) and fed lab chow and water ad libitum. Each rat received an intraperitoneal injection of 2.0 mg. of reserpine in aqueous suspension 18 hours before administration of the ergoline derivative. The purpose of the reserpine was to keep prolactin levels uniformly elevated. The compounds under test were dissolved in 10 percent ethanol at a concentration of 10 mcg/ml. and were injected intraperitoneally at a standard dose of 50 mcg/kg. Each compound was administered to a group of 10 rats, and a control group of 10 intact males received an equivalent amount of 10 percent ethanol. One hour after treatment all rats were killed by decapitation, and 150 μl aliquots of serum were assayed for prolactin. The results were evaluated statistically using Student's "t" test to calculate the level of significance, "p", of the changes in prolactin level.
The difference between the prolactin level of the treated rats and prolactin level of the control rats, divided by the prolactin level of the control rats gives the percent inhibition of prolactin secretion attributable to the compounds of this invention. In the table, column 1 gives the name of the compound; column 2, the prolactin level for each group of rats; column 3, the percent prolactin inhibition; and column 4, the level of significance. The data were collected from three separate experiments, each with its own control, and Table 2 sets forth the results obtained by experiment.

dopamine receptors = assay: inhibition of high affinity binding of tritiated dopamine to dopamine receptors in membranes from striatal synaptosomes of bovine brain; settings: for Ki: Table 3, tritiated dopamine, striatal synaptosomes of bovine brain
prolactin [5] = assay: inhibition of serum prolactin in reserpine-pretreated male rats; assay type: in vivo, rat (Sprague-Dawley); settings: from dose response curves
serotonin = serotonin agonist activity
[6] = Experiment 3, 50 mcg/kg i.p., 1 hour, control 42.3 ± 7.3, P <0.001
[7] = Experiment 1, 50 mcg/kg i.p., 1 hour, control 30.4 ± 3.4, P <0.001 or <0.01

SMILES	% of Rats Exhibiting Turning Behavior ([3]; IP dose 1 mg/kg, Table I) [%]	Duration of Effect ([3]; IP dose 1 mg/kg, Table I) [h]	Latency of Effect ([3]; IP dose 1 mg/kg, Table I) [min]	Average Number of Turns/rat ([3]; IP dose 1 mg/kg, Table I) [Turns/rat]	inhibition at 0.05 mg/kg (prolactin [4]; 1 h) [%]	Ki (dopamine receptors) [nM]	other results
N[C@@H](Cc1ccc(O)c(O)c1)C(=O)O [1-dopa, 1-dihydroxyphenylalanine]							metabolism (in words) [1]: rapidly metabolized
CC(C)C[C@H]1C(=O)N2CCC[C@H]2[C@]2(O)O[C@](NC(=O)[C@@H]3C=C4c5cccc6[nH]c(Br)c(c56)C[C@H]4N(C)C3)(C(C)C)C(=O)N12 [2-bromo-α-ergokryptine]							prolactin inhibitor activity (in words) (prolactin [2]): activity as prolactin inhibitors; treatment of Parkinsonism (in words) (Parkinsonism): useful in the treatment of Parkinsonism; dopamine receptor stimulation (in words) (dopamine receptor): stimulate dopamine receptors
CCCN1C[C@H](CSC)C[C@@H]2c3cccc4[nH]c(Br)c(c34)C[C@H]21 [D-2-bromo-6-n-propyl-8β-methylmercaptomethylergoline]	100	1	5	71	89	3	Serum Prolactin Level (prolactin [4]; [6]): 4.6 ± 0.4 ng/mL
CSC[C@@H]1C[C@@H]2c3cccc4[nH]c(Cl)c(c34)C[C@H]2N(C)C1 [D-2-chloro-6-methyl-8β-methylmercaptomethylergoline mesylate, reference compound]						6	
C=CCN1C[C@H](CSC)C[C@@H]2c3cccc4[nH]cc(c34)C[C@H]21 [D-6-allyl-8β-methylmercaptomethylergoline]						5	
CCN1C[C@H](CSC)C[C@@H]2c3cccc4[nH]cc(c34)C[C@H]21 [D-6-ethyl-8β-methylmercaptomethylergoline]	100	≥ 2	9	112	91	3.5	Serum Prolactin Level (prolactin [4]; [6]): 3.9 ± 0.4 ng/mL
CN1CC(CC#N)C[C@@H]2c3cccc4[nH]cc(c34)C[C@H]21 (stereo partly drawn) [D-6-methyl-8-cyanomethylergoline]							prolactin inhibitor activity (in words) (prolactin [2]): activity as prolactin inhibitors
COC[C@@H]1C[C@@H]2c3cccc4[nH]cc(c34)C[C@H]2N(C)C1 [D-6-methyl-8β-methoxymethylergoline mesylate, reference compound]						75	
CSC[C@@H]1C=C2c3cccc4[nH]cc(c34)C[C@H]2N(C)C1 [D-6-methyl-8β-methylmercaptomethyl-9-ergolene, reference compound]						6	
CSC[C@@H]1C[C@@H]2c3cccc4[nH]cc(c34)C[C@H]2N(C)C1 [D-6-methyl-8β-methylmercaptomethylergoline mesylate, reference compound]	50		30 to 45	51	58	13	Duration of Effect in Hours ([3]; IP dose 1 mg/kg, Table I): ~ 2 Hours; Serum Prolactin Level (prolactin [4]; [7]): 12.8
CCCN1CC(CSC)=C[C@@H]2c3cccc4[nH]cc(c34)C[C@H]21 [D-6-n-propyl-8-methylmercaptomethyl-8-ergolene]	100	1	4	118	91	2	Serum Prolactin Level (prolactin [4]; [6]): 3.9 ± 0.2 ng/mL
CCCN1C[C@H](COC)C[C@@H]2c3cccc4[nH]cc(c34)C[C@H]21 [D-6-n-propyl-8β-methoxymethylergoline methanesulfonate]	100	≥ 2	6	111	96	10	Serum Prolactin Level (prolactin [4]; Experiment 2, 50 mcg/kg i.p., 1 hour, control 55.2 ± 4.1, P <0.001): 2.4 ± 0.2 ng/mL
CCCN1C[C@H](CSC)C=C2c3cccc4[nH]cc(c34)C[C@H]21 [D-6-n-propyl-8β-methylmercaptomethyl-9-ergolene]	100	≥ 2	4	200	81	2	Serum Prolactin Level (prolactin [4]; [6]): 8.1 ± 1.2
CCCN1C[C@H](CSC)C[C@@H]2c3cccc4[nH]cc(c34)C[C@H]21 [D-6-n-propyl-8β-methylmercaptomethylergoline methanesulfonate]		≥ 24	5 to 7	105		3 ± 1	average turns per lesioned rat ([3]; 15-minute period after latency): 105 turns per lesioned rat; potency in the turning behavior test relative to the corresponding D-6-methyl derivative ([3]; from dose response curves, 6-hydroxydopamine-lesioned rats): about 30 times; Serum Prolactin Level (prolactin [4]; [7]): 1.6 ± 0.4 ng/mL; inhibition at 0.05 mg/kg (prolactin [4]; Experiment 1, 50 mcg/kg i.p., 1 hour, P <0.001 (n-propyl), <0.01 (methyl)): 95%; potency as a prolactin inhibitor relative to the corresponding D-6-methyl compound (prolactin [5]): about 100 times
CCCN1C[C@H](CSC)C[C@@H]2c3cccc4[nH]cc(c34)C[C@H]21 [D-6-n-propyl-8β-methylmercaptomethylergoline]							inhibition of high affinity binding of tritiated dopamine (in words) (dopamine receptors; bovine striatal synaptosome membranes): extremely potent inhibitors; serotonin activity (in words) (serotonin): serotonin agonists rather than serotonin antagonists
CCCN1C[C@H](C[S+](C)[O-])C[C@@H]2c3cccc4[nH]cc(c34)C[C@H]21 (stereo partly drawn) [D-6-n-propyl-8β-methylsulfinylmethylergoline]	100	1	7	65	92		Serum Prolactin Level (prolactin [4]; [6]): 3.3 ng/mL
CC(C)[C@H]1C(=O)N2CCC[C@H]2[C@]2(O)O[C@](NC(=O)[C@@H]3C=C4c5cccc6[nH]cc(c56)C[C@H]4N(C)C3)(C(C)C)C(=O)N12 [Ergocornine]							prolactin inhibitor activity (in words) (prolactin [2]): activity as prolactin inhibitors; dopamine receptor stimulation (in words) (dopamine receptor): direct dopamine receptor stimulants of long duration
CC(C)[C@H]1C(=O)N2CCC[C@H]2[C@]2(O)O[C@](NC(=O)[C@@H]3C[C@@H]4c5cccc6[nH]cc(c56)C[C@H]4N(C)C3)(C(C)C)C(=O)N12 [dihydroergocornine]							prolactin inhibitor activity (in words) (prolactin [2]): activity as prolactin inhibitors
CN1C[C@H](CC#N)C[C@@H]2c3cccc4[nH]c(Cl)c(c34)C[C@H]21 [lergotrile]							treatment of Parkinsonism (in words) (Parkinsonism): useful in the treatment of Parkinsonism

Reference: US4202979A, “6-Ethyl(or allyl)-8-methoxymethyl or methylmercaptomethylergolines and related compounds” (priority 1979, dated 1980)
